Reference: patent US20040097408A1, “Compounds regulating cell proliferation and differentiation” (priority 2001, published 2004)

Columns and labels:
A6 cells = assay: electron-microscopy analysis of mitochondria; type: cell-based, mouse; conditions: 3 μM F16, abnormalities evident as early as 15 hr
Method: (§1) Electron-microscopy analysis was performed on untreated or F16-treated A6 cells, control cells and tumor cell lines SH1.1 and SMF to search for potential mitochondria lesions due to F16 accumulation. Cells grown in 35 mm dishes were left untreated or treated with 3 μM F16 for the indicated times, and fixed for 1 hr at room temperature in 0.1 M Cacodylate buffer containing 1.25% formaldehyde, 2.5% glutaraldehyde and 0.3% picric acid. Samples were then treated with 1% osmiuntetroxide/1.5% potassiumferrocyanide, followed by 1% uranyl acetate, dehydrated and epon-araldite embedded. Ultrathin sections were examined using a JEOL 1200EX microscope.

control cells = assay: electron-microscopy analysis of mitochondria; type: cell-based, mouse; conditions: 3 μM F16
Method: as §1

SKBR-3 = assay: cell count proliferation assay; type: cell-based; set-up: key: +: A positive scoring in these Tables represent cells in which a 2-5 and a 10-40 fold reduction in the total number of cells relative to the control untreated cells was observed after 3 and 7 days of culture with F16, respectively; conditions: SKBR-3, human breast; F16 3 μM, cells counted after 3 and 7 days
Source text: (§2) The following panel of mouse tumor cell lines derived from Neu, Ras and Myc transgenic mice and panel of human cancer cell lines were used: a) Neu-initiated mouse tumor cell lines NF980, NF324-2A, NF324-1B, SMF, NAF, Neu4145, n-Neu, Ras-initiated mouse tumor cell lines SH1,1, AC236, AC711, AC816, ACp53^−#1, ACp53^−4782, AC222, AC99, AC260, ACp53^−#19, ACp53^−#16, AC/Balb6.6, AC/Balb14, AC/Balb12 and Myc-initiated mouse tumor cell lines 16MB9a, 13MA1a; and b) human breast tumor cell lines MDA-MB231, MDA-MB435, MDA-MB436, MDA-MB453, MDA-MB-468, SKBR-3, MCF-7, T47D, ZR75; human prostate cancer cell lines LNCaP, PC-3, DU145 and the human ovarian cancer cell line SKOV-3.
(§3) For each cell line, 10^5 cells were seeded in 4×6 well plates. Next day, F16 was added at 3 μM to the medium of 2 of the plates, while the other two were left untreated (control). Cells were counted 3 days and 7 days after initiation of treatment.
(§4) A positive scoring in these Tables represent cells in which a 2-5 and a 10-40 fold reduction in the total number of cells relative to the control untreated cells was observed after 3 and 7 days of culture with F16, respectively.

MDA-MB-453 = assay: cell count proliferation assay; type: cell-based; set-up: key: +: A positive scoring in these Tables represent cells in which a 2-5 and a 10-40 fold reduction in the total number of cells relative to the control untreated cells was observed after 3 and 7 days of culture with F16, respectively; conditions: MDA-MB-453, human breast; F16 3 μM, cells counted after 3 and 7 days
Source text: as §2, §3, §4

MCF-7 = assay: cell count proliferation assay; type: cell-based; set-up: key: +: A positive scoring in these Tables represent cells in which a 2-5 and a 10-40 fold reduction in the total number of cells relative to the control untreated cells was observed after 3 and 7 days of culture with F16, respectively; conditions: MCF-7, human breast; F16 3 μM, cells counted after 3 and 7 days
Source text: as §2, §3, §4

ZR75 = assay: cell count proliferation assay; type: cell-based; set-up: key: +: A positive scoring in these Tables represent cells in which a 2-5 and a 10-40 fold reduction in the total number of cells relative to the control untreated cells was observed after 3 and 7 days of culture with F16, respectively; conditions: ZR75, human breast; F16 3 μM, cells counted after 3 and 7 days
Source text: as §2, §3, §4

MDA-MB-436 = assay: cell count proliferation assay; type: cell-based; set-up: key: +: A positive scoring in these Tables represent cells in which a 2-5 and a 10-40 fold reduction in the total number of cells relative to the control untreated cells was observed after 3 and 7 days of culture with F16, respectively; conditions: MDA-MB-436, human breast; F16 3 μM, cells counted after 3 and 7 days
Source text: as §2, §3, §4

MDA-MB-468 = assay: cell count proliferation assay; type: cell-based; set-up: key: +: A positive scoring in these Tables represent cells in which a 2-5 and a 10-40 fold reduction in the total number of cells relative to the control untreated cells was observed after 3 and 7 days of culture with F16, respectively; conditions: MDA-MB-468, human breast; F16 3 μM, cells counted after 3 and 7 days
Source text: as §2, §3, §4

T47D = assay: cell count proliferation assay; type: cell-based; set-up: key: +: A positive scoring in these Tables represent cells in which a 2-5 and a 10-40 fold reduction in the total number of cells relative to the control untreated cells was observed after 3 and 7 days of culture with F16, respectively; conditions: human breast, F16 3 μM, cells counted after 3 and 7 days
Source text: as §2, §3, §4

EpH-A6 cells = assay: cell cycle phases by BrdU incorporation / FACS; type: cell-based, mouse; conditions: 3 μM F16, 30-36 hr, FIG. 5
Method: The percentage of cells in the different phases of the cell cycle was assessed by measuring BrdU incorporation into the DNA of the cells. BrdU incorporation into DNA of untreated or F16 treated (3 μM/30-36 hr) EpH-EV and EpH-A6 cells was assessed by FACS as follows. After F16 or mock treatment, the cells were pulsed with BrdU (20 μM) for 1 hour and then fixed in 70% ethanol at −20° C. overnight. Next morning cells were washed twice with 1×PBS and the DNA was denatured by incubation of the cells in 2N HCl/0.5% Triton X-100. The cells were then washed twice in 0.1M Na2B2O7, and once in PBS. The cells were resuspended in PBS, incubated with 20 μL of anti-BrdU/FITC(Becton Dickinson) for 1 hour and subsequently washed with 1×PBS and resuspended in PBS. RNA was digested with RNaseA (1 μL of 10 mg/mL stock) at 37° C. for 30 minutes. Finally, the cells were diluted with 1 mL of 5 μg/mL propidium iodide/PBS and incubated on ice for 15 minutes. The labeled cells were analyzed using the FACSCalibur (Becton Dickinson).

[1] = test system: isolated mouse liver mitochondria; assay: swelling of isolated mitochondria (permeability transition pore opening); type: biochemical; conditions: 0.5 mg/ml mitochondria
Method: Mitochondria were isolated from liver of Balb/c7 mice by standard differential centrifugation, and resuspended in isolation buffer (0.2 M sucrose, 10 mM Tris-MOPS pH 7.4, 0.1 mM EGTA-Tris, 0.1% delipidated BSA) (Costantini et al. (1995) Toxicology (99) 77-88). Protein concentration was determined by Bradford assay. For swelling determination, changes in side scatter at 545±2.5 nm of a 0.5 mg/ml suspension of mitochondria in experimental buffer (125 mM KCl, 10 mM Tris-MOPS pH 7.4, 1 mM Pi, 5 mM glutamate, 2.5 mM malate, 10 μM EGTA-Tris, pH 7.4) were monitored by using LS-50B spectrofluorimeter. […] All reactions were performed at 25° C. and the instrument was equipped with magnetic stirring.

NF324-2A = assay: cell count proliferation assay; type: cell-based, mouse; set-up: key: +: A positive scoring in these Tables represent cells in which a 2-5 and a 10-40 fold reduction in the total number of cells relative to the control untreated cells was observed after 3 and 7 days of culture with F16, respectively; conditions: Neu, breast, F16 3 μM, cells counted after 3 and 7 days
Source text: as §2, §3, §4

Structure (SMILES): C[n+]1ccc(/C=C/c2c[nH]c3ccccc23)cc1.[I-] [F16]
- mitochondrial ultrastructure (A6 cells): progressive swelling and disruption of mitochondrial integrity
- mitochondrial ultrastructure (control cells): no abnormalities in mitochondria morphology
- F16 response (SKBR-3): +
- F16 response (MDA-MB-453): +
- F16 response (MCF-7): +
- F16 response (ZR75): +
- F16 response (MDA-MB-436): +
- F16 response (MDA-MB-468): +
- F16 response (T47D): +
- percentage of cells in G1 phase (EpH-A6 cells): increase
- percentage of cells in the S phase (EpH-A6 cells): dramatic decrease
- swelling of purified mitochondria [1]: swelling of purified mitochondria in a dose-dependent fashion
- F16 response (NF324-2A): +
